Laboratory results from patent US20130012429A1, “ANTI-VIRAL THERAPY” (priority 2011, published 2013).
“Also recorded” adds a separate entry of the source. No end group written: not given here.

What was measured:
HAMP mRNA = HAMP mRNA induction by BMP6, BMP9 or IL-6 in hepatoma cells pre-treated with TNF-alpha (qRT-PCR); format: cell-based, human; conditions: TNF-alpha treatment
Description: (§1) RNA extraction and cDNA synthesis were carried out by using either RNeasy kits with QIAshredder homogenization (both Qiagen) and the High capacity RNA-to-cDNA kit (Applied Biosystems), or by using the Cells-to-Ct kit (Applied Biosystems), all according to the manufacturers' protocols. qRT-PCR reactions were performed on an Applied Biosystems Fast 7500 Real-Time PCR System (Applied Biosystems). Gene expression was assessed using inventoried Taqman Gene Expression Assays (Applied Biosystems) (see table 4 for assay codes) with Taqman Gene Expression Master Mix (Applied Biosystems) following the manufacturer's instructions. cDNA was diluted in Nuclease-Free Water (Ambion) to achieve a final concentration of 1-3 ng/uL. Samples were run in duplicate and gene expression levels were quantified relative to glyceraldehyde-3-phosphate dehydrogenase (GAPDH) mRNA expression using the delta Ct method; in some cases relative expression was then quantified further by normalizing to the untreated controls (delta-delta Ct method).
(§2) The hepatoma cell line Hep3B were maintained in MMEM supplemented with 10% foetal calf serum (PAA), 2 mM glutamine, 100 U/mL penicillin, 0.1 mg/mL streptomycin (all Sigma). HuH7 and HuH7.5 cells were cultured in DMEM supplemented as above. HuH7.5 cells infected at a MOI of 0.02 or hepatoma cells pre-treated for 48 h with TNF-alpha at 20 ng/mL were incubated overnight with titrations of human recombinant BMP6 or BMP9, and in the case of TNF-alpha treated cells IL-6 (all R&D Systems). Titrations of TNF-alpha were applied for 48 h prior to RNA extraction. A neutralizing anti-TNF-alpha antibody (clone 1825), (R&D Systems) supplemented the culture medium of HCV infected HuH7.5 cells at 0.2 μg/mL and was added at each sub culture from 2 days post infection to the end of the infection course. Uninfected cells were cultured and treated in parallel with the HCV infected cells.

[1] = test system: SMAD1/5/8 phosphorylation; test: Western blot of p-SMAD1/5/8 in Hep3B cells pre-treated with TNF-alpha and exposed to BMP6; format: cell-based, human
Description: Hep3B cells were exposed to TNF-alpha at 20 ng/mL for 48 hours before the addition of BMP6 at an end concentration of 2 nM. Lysates were harvested at either 1 h or 18 h post addition of BMP6. Briefly, cells were trypsinised and lysed for 20 min on ice in NP40 1% buffer supplemented with protease inhibitors (Sigma) at 1:500 and phosphatase inhibitor cocktail 2 (Sigma) at 1:100. The lysates were spun at 4° C., 13,000 rpm for 5 minutes and the supernatants stored at −80° C. until the blot was performed. Briefly, the protein content of the lysates was normalised using the BCA assay (Pierce) and run on 12% SDS-PAGE mini gels. Gels were blotted onto nitrocellulose membranes (GE Healthcare) and then blocked for 1 hour at room temperature in PBS containing 5% (w/v) milk. Membranes were then probed overnight at 4° C. in TBS-TWEEN containing 5% (w/v) BSA with the following primary antibodies: mouse anti-beta-actin (loading control) (Sigma), mouse anti-rabbit IgG (negative control) (Dako), rabbit anti-pSMAD1/5/8 (Cell Signalling), or rabbit anti-H.Pylori (negative control) (Dako). […] Membranes were developed using ECL reagent (GE Healthcare), films were scanned using an AlphaScan (Alpha Innotech) running Epson Scan software (Seiko Epson), and band intensities were determined using ImageQuant5.2 (Molecular Dynamics).

[2] = test system: BMP/SMAD signalling pathway; test: HJV, SMAD6 and SMAD7 mRNA in uninfected hepatoma (Hep3B) cells incubated with TNF-alpha (qRT-PCR); format: cell-based, human
Description: as §1, §2

HCV (Jc1 HCV strain) = test: Antiviral experiments: HCV-RNA in supernatants and cells of HCV-infected HuH7.5 cells (qRT-PCR); format: cell-based, hepatitis C virus
Source text: The Jc1 HCV strain was produced as described previously (Reference 20). Briefly, HuH7.5 cells were transfected with Jc1 RNA by electroporation and supernatants harvested 14-20 days post transfection. HuH7.5 cells were infected at a multiplicity of infection (MOI) of 0.02 unless otherwise stated. Infection was allowed to proceed for 9-11 days at which point infection was greater than 90% as determined by immunofluorescence (also described in Reference 20).
5 day time course: cells infected as described above at a MOI of 0.02 for 2 h were plated and then immediately treated with BMP6 at the doses stated in the figures for the duration of the infection. 10 day time course: cells infected for 2 h were plated and incubated for 3 days. Cells were sub-cultured and BMP6 added at the stated doses. Additional doses of the same concentration were applied at further sub-culturing to maintain the dose. For both time courses, IFNa (PBL Biomedical Laboratories) was added at 1000 U overnight either at day 4 (5 day time course) or day 9 (10 day time course). Supernatant RNA extraction was performed using QIAamp viral RNA extraction kit and total cellular RNA was extracted using RNeasy kit (both Qiagen). cDNA was then transcribed using the Superscript III Reverse transcriptase (Invitrogen) (random hexamers), all according to the manufacturers' protocols. HCV-RNA levels were measured using qRT-PCR in a LightCycler 480 Real-Time PCR System (Roche). cDNA at 10-100 ng/uL was amplified using RC1 (5′ […] 3′ (SEQ ID NO:3)) and RC21(5′ […] 3′ (SEQ ID NO:4)) primers. Each reaction was run in duplicate. HCV-RNA levels were quantified using a standard curve derived from HCV Jc1 cDNA.

[3] = test system: Influenza A Virus Strain PR8; format: cell-based; conditions: infected HuH7 cells mixed 1:10 with uninfected, cultured 24 hours; compared with interferon alpha and beta; FIG. 2
[4] = 1 uM hepcidin peptide added 3 days after HCV inoculation, a further 7 days, FIG. 11

## TNF-alpha
HAMP mRNA; FIG. 9b
  mean suppression of HAMP mRNA upregulation in response to BMP6: 16.8 fold
HAMP mRNA; FIG. 9c
  mean suppression of HAMP mRNA upregulation in response to BMP9: 4.3 fold
HAMP mRNA; FIG. 10
  hepcidin response to IL-6: blunted
[1]; 18 hr exposure to BMP6, TNF-alpha pre-treatment
  inhibition of SMAD1/5/8 phosphorylation stimulated by BMP6: ~35%
[1]; Hep3B cells, BMP6 for both 1 hr and 18 hr, FIG. 9a
  p-SMAD1/5/8 after incubation with BMP6: reduced
[2]; FIG. 5e
  HJV mRNA levels: reduced
[2]; FIG. 5f
  SMAD6 mRNA: increased
  SMAD7 mRNA: increased

## hepcidin: hepcidin peptide, the iron regulatory hormone encoded by HAMP, added exogenously at 1 uM (DTHFPICIFCCGCCHRSKCGMCCKT; ends and bridges not checked; cysteine pairing not given here; UniProt P81172 60-84, looked up)
HCV (Jc1 HCV strain); [4]
  HCV RNA in cells: not significantly altered
  HCV RNA in supernatant: not significantly altered
HCV (Jc1 HCV strain); FIG. 11
  effect on HCV replication: No specific effect

B1: BMP6: human recombinant BMP6 (R&D Systems), a bone morphogenetic protein that stimulates the BMP/SMAD signalling pathway (protein, UniProt P22004 375-513, looked up)
Bone morphogenetic protein 6: SASSRRRQQSRNRSTQSQDVARVSSASDYNSSELKTACRKHELYVSFQDLGWQDWIIAPKGYAANYCDGECSFPLNAHMNATNHAIVQTLVHLMNPEYVPKPCCAPTKLNAISVLYFDDNSNVILKKYRNMVVRACGCH
HCV (Jc1 HCV strain); 2 nM BMP6 added after 3 days of HCV replication, measured after a further 7 days
  viral RNA in supernatants, established infection: reduced modestly
HCV (Jc1 HCV strain); 6 nM BMP6 added after 3 days of HCV replication, measured after a further 7 days
  viral RNA in supernatants, established infection: reduced modestly
HCV (Jc1 HCV strain); 5 days post-infection, BMP6 at all doses for the duration of the infection, IFNa overnight, FIG. 12b
  culture supernatant HCV RNA after 5 days: significantly reduced; also recorded: significantly lower
HCV (Jc1 HCV strain); 10 days post-infection, 18 nM BMP6 for 7 days or IFNa overnight, FIG. 12c
  viral RNA in supernatants, established infection: lower
HCV (Jc1 HCV strain); 10 days post-infection, 18 nM BMP6 for 7 days or IFNa overnight, FIG. 12d
  cellular HCV RNA, established infection: significantly reduced; also recorded: lower
HCV (Jc1 HCV strain); BMP6 added immediately after infecting HuH7.5 cells, 5 day time course, FIG. 12a
  accumulation of HCV RNA in culture supernatants over time: severely restricted; also recorded: reduced
HCV (Jc1 HCV strain); in vitro live virus model, over 5 days
  suppression of HCV growth: over 90%
[3]
  spread of the Influenza virus (level of haemagglutinin): restricts spread of the Influenza virus
